# According to the supplement of paper PMC10307832:
# Legend:
# Assay in all cases: relative viability (nuclei count vs DMSO), 5 days (fraction); higher = more cells survive
# [1] = compound: CCc1c2c(nc3ccc(OC(=O)N4CCC(N5CCCCC5)CC4)cc13)-c1cc3c(c(=O)n1C2)COC(=O)[C@]3(O)CC [Irinotecan] + Cc1nc(Nc2ncc(C(=O)Nc3c(C)cccc3Cl)s2)cc(N2CCN(CCO)CC2)n1 [Dasatinib] (partner 0.075 µM)
# Outline: (§1)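 One day after seeding in 1536-well plates, lung cancer cell lines were dosed by pin tool. Dosing was either single-drug or a fixed anchor-drug dose plus five library-drug doses (not always all listed) in √10 steps. After 5 days, nuclei were stained in one fix-and-stain step and counted on 4× images, and relative viability is the nuclei count of treated wells over that of vehicle wells, given as the median of duplicate plates.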
# [2] = compound: CC[C@@H](C)CNCC(=O)N1CCC2=C([C@@H]1COC3=CC=CC(=C3)C)C=CS2 [RU-SKI 43] + C[C@@H](Oc1cc(-c2cnn(C3CCNCC3)c2)cnc1N)c1c(Cl)ccc(F)c1Cl [Crizotinib] (partner 1 µM)
# Outline: as §1
# [3] = compound: CC[C@@H](C)CNCC(=O)N1CCC2=C([C@@H]1COC3=CC=CC(=C3)C)C=CS2 [RU-SKI 43] + N=C(N)NC(=N)NCCc1ccccc1 [Phenformin] (partner 250 µM)
# Outline: as §1
# [4] = compound: Cn1cc(-c2cnc3ccc4ccc(CS(=O)(=O)NCc5ccccn5)cc4c(=O)c3c2)cn1 [MK-8033] + CC(C)C[C@H](NC(=O)[C@H](Cc1ccccc1)NC(=O)c1cnccn1)B(O)O [Bortezomib] (partner 0.002 µM)
# Outline: as §1
Cell Line,relative viability ([1]; first compound 0.6325 µM),relative viability ([1]; first compound 2 µM),relative viability ([1]; first compound 6.325 µM),relative viability ([1]; first compound 20 µM),relative viability ([2]; first compound 0.1 µM),relative viability ([2]; first compound 0.3162 µM),relative viability ([2]; first compound 1 µM),relative viability ([2]; first compound 3.162 µM),relative viability ([2]; first compound 10 µM),relative viability ([3]; first compound 0.1 µM),relative viability ([3]; first compound 0.3162 µM),relative viability ([3]; first compound 1 µM),relative viability ([3]; first compound 3.162 µM),relative viability ([3]; first compound 10 µM),relative viability ([4]; first compound 0.02 µM),relative viability ([4]; first compound 0.06325 µM),relative viability ([4]; first compound 0.2 µM),relative viability ([4]; first compound 0.6325 µM),relative viability ([4]; first compound 2 µM)
LOU-NH91,0.525,0.548,0.31,0.361,0.795,0.818,0.719,0.754,0.715,0.705,0.673,0.733,0.715,0.666,0.455,0.559,0.511,0.554,0.495
LU99A,0.303,0.322,0.248,0.177,0.542,0.565,0.595,0.6,0.469,0.862,0.955,0.863,0.871,0.654,1.32,1.09,1.09,1.13,1.12
LXF-289,0.138,0.265,0.172,0.139,0.815,0.784,0.806,0.83,0.736,0.53,0.551,0.574,0.548,0.514,0.989,0.964,0.985,0.999,0.978
NCI-H23,0.563,0.679,0.274,0.231,0.472,0.42,0.451,0.598,0.39,0.772,0.849,0.836,0.857,0.698,0.959,0.712,0.796,1.03,1.01
NCI-H322M,0.247,0.331,0.358,0.191,1.19,1.04,0.941,0.979,0.733,0.718,0.758,0.832,0.833,0.771,1.29,1.2,1.11,1.14,1.18
NCI-H441,0.461,0.577,0.286,0.22,0.662,0.655,0.637,0.686,0.641,0.966,1.02,0.836,0.844,0.729,0.396,0.309,0.378,0.67,0.929
NCI-H460,0.402,0.301,0.0681,0.0459,0.869,1.2,0.91,1.01,0.551,0.534,0.973,0.788,0.575,0.467,0.908,1.08,1.06,1.28,1.17
NCI-H520,0.192,0.214,0.202,0.161,0.858,0.874,1.09,0.706,0.616,0.673,0.629,0.519,0.581,0.561,0.471,0.309,0.495,0.565,0.446
NCI-H596,0.576,0.765,0.703,0.633,0.998,0.904,0.987,1.06,1.03,0.776,0.808,0.725,0.921,0.77,1.18,0.933,0.882,0.941,1.09
NCI-H647,0.123,0.187,0.131,0.0807,1.29,1.23,1.15,1.14,0.833,0.631,0.621,0.84,0.686,0.501,0.874,0.819,1.04,0.934,0.871
NCI-H650,0.34,0.396,0.215,0.245,0.76,0.622,0.694,–,0.619,0.479,0.37,0.509,0.425,0.475,0.858,0.745,0.737,0.794,0.886
NCI-H661,0.691,0.64,0.353,0.141,0.887,0.943,0.984,0.942,0.938,0.288,0.281,0.324,0.281,0.267,0.764,0.685,0.647,0.907,0.858
NCI-H727,0.243,0.467,0.437,0.438,0.688,0.975,0.796,0.872,0.7,0.524,0.59,0.676,0.662,0.445,0.873,0.62,0.882,0.993,0.857
NCI-H838,0.213,0.259,0.249,0.247,0.904,0.98,0.826,0.794,0.75,0.682,0.626,0.745,0.654,0.682,0.794,0.721,0.87,0.79,0.706
NCI-H1355,–,0.85,0.511,0.272,1.07,1.14,1.17,1.26,1.01,0.49,0.446,0.475,0.472,0.438,1.25,1.12,1.14,1.21,1.15
NCI-H1437,0.229,0.534,0.254,0.111,0.873,1.29,1.11,0.93,0.875,0.359,0.267,0.311,0.352,0.306,0.469,0.444,0.512,0.489,0.419
NCI-H1563,0.392,0.458,0.44,0.514,0.789,0.773,0.825,0.836,0.734,0.607,0.653,0.706,0.668,0.61,0.951,0.823,0.857,0.833,0.838

Cell Line,relative viability ([1]; first compound 0.6325 µM),relative viability ([1]; first compound 2 µM),relative viability ([1]; first compound 6.325 µM),relative viability ([1]; first compound 20 µM),relative viability ([2]; first compound 0.1 µM),relative viability ([2]; first compound 0.3162 µM),relative viability ([2]; first compound 1 µM),relative viability ([2]; first compound 3.162 µM),relative viability ([2]; first compound 10 µM),relative viability ([3]; first compound 0.1 µM),relative viability ([3]; first compound 0.3162 µM),relative viability ([3]; first compound 1 µM),relative viability ([3]; first compound 3.162 µM),relative viability ([3]; first compound 10 µM),relative viability ([4]; first compound 0.02 µM),relative viability ([4]; first compound 0.06325 µM),relative viability ([4]; first compound 0.2 µM),relative viability ([4]; first compound 0.6325 µM),relative viability ([4]; first compound 2 µM)
NCI-H1650,–,0.401,0.304,0.177,0.968,0.916,0.971,0.991,0.67,0.423,0.314,0.445,0.386,0.336,0.198,0.181,0.197,0.234,0.218
NCI-H1651,0.319,0.311,0.281,0.112,0.886,0.971,0.891,0.887,0.865,0.351,0.418,0.363,0.342,0.277,0.988,0.868,0.968,0.999,1.02
NCI-H1666,0.864,0.657,0.486,0.348,0.966,1.01,0.971,0.945,0.571,0.58,0.574,0.518,0.519,0.53,0.766,0.722,0.886,0.822,0.806
NCI-H1734,–,0.385,0.218,0.155,0.724,0.709,0.745,0.652,0.547,0.43,0.385,0.44,0.35,0.38,1.14,0.814,0.871,0.898,0.916
NCI-H1755,0.373,0.45,0.308,0.271,0.809,1.15,0.953,0.889,0.74,0.648,0.613,0.63,0.644,0.666,0.987,0.834,0.933,0.849,0.835
NCI-H1792,0.803,0.747,0.506,0.192,1.09,1.53,1.21,1,0.921,0.267,–,0.4,–,0.227,1,0.96,0.966,0.525,0.954
NCI-H1915,0.215,0.221,0.132,0.128,0.913,1.36,0.938,0.957,0.959,0.391,0.445,0.365,0.376,0.361,1,0.911,0.975,1.03,0.952
NCI-H1975,0.28,0.469,0.305,0.155,1.04,1.3,1.12,0.925,0.709,0.385,0.468,0.444,0.422,0.404,0.386,0.328,0.365,0.429,0.367
NCI-H1993,0.549,0.601,0.484,0.603,0.839,0.882,0.84,0.945,0.758,0.526,0.5,0.471,0.511,0.487,0.498,0.804,0.794,0.816,0.853
NCI-H2009,0.284,0.287,0.182,0.116,1.07,1.06,1.06,1.03,0.905,0.49,0.514,0.519,0.474,0.424,1.03,1.09,0.954,0.95,0.984
NCI-H2023,0.595,0.67,0.241,0.0645,0.623,0.685,0.602,0.58,0.428,0.421,0.471,0.466,0.43,0.396,1.06,0.89,0.852,0.96,0.778
NCI-H2085,0.221,0.23,0.266,0.273,0.881,0.709,0.805,0.783,0.761,0.758,0.652,0.709,0.698,0.631,0.956,0.941,0.98,1.08,0.963
NCI-H2087,0.392,0.535,0.19,0.196,0.837,1.12,0.915,0.783,0.733,0.46,0.552,0.477,0.526,0.406,0.877,0.77,0.828,0.687,0.829
NCI-H2126,–,0.55,0.41,0.135,1.01,1.24,1.06,1.06,1.01,0.593,0.517,0.59,0.589,0.546,1.17,1.11,1.01,1.06,1.07
NCI-H2228,0.443,0.481,0.318,0.246,0.498,0.416,0.448,0.579,0.306,0.239,0.407,0.237,0.329,0.278,1.04,0.932,1.08,0.998,1.06
NCI-H2347,0.307,0.242,0.245,0.372,0.745,0.568,0.778,0.67,0.735,0.34,0.352,0.544,0.36,0.383,1.1,0.999,0.846,1.03,1.08
